Measured values: patent publication US12628826B2, “Fungicidal composition” (UPL Corporation Limited, priority 2020, dated 2026)

What was measured:
Aphanomyces euteiches = experiment: Potted plant trial, field pea, 2× rate of Aphanomyces infection (Example 2); conditions: ipconazole 2.5, carboxin 66.7, metalaxyl 6.7 g ai/100 kg, combination 500 ml/100 kg; for Root rot damage: 29 DAP
Protocol: The control consisted of seed inoculated with Aphanomyces and used water as the seed treatment. The experiment was performed in a controlled environment growth cabinet.
Culture: A 3-day old culture of Aphanomyces euteiches (3 days is when growth has fully encompassed plate) was used for 5 mm inoculation plug source (each plate received one 5 mm plug and four seeds)×4 reps.
Experimental design: 4 reps of each treatment (including controls), with each replication represented by 5 planted seeds for a total of 20 seeds per treatment were performed. All treatments received inoculum. Each seed is placed in a solitary location of a plant tray/flat that has 50 plugs per flat. One flat contained 2 treatments, separated by 10 plugs (2 rows of 5). Treatments 1 and 6 (controls) shared the same flat. The plug flats were placed in a collection tray that was not perforated and all watering was done with tap water from bottom up.
Culture media: 3 day old cultures of A. euteiches were grown on CYP (corn meal agar+yeast extract+phosphate buffer), amended with wheat leaf sections were transferred to 100 ml sterile distilled water in 250 ml flasks and shaken at 100 rpm in the dark at 23° C. for 18 hours for zoospore production.
Inducing Aphanomyces infection: Zoospores were counted and adjusted to a concentration of 1×10^4 spores, and 5 mls of this suspension was pipetted to the base of each plant on 4 DAP and again on 11 DAP (days after planting). This amounted to 50000 zoospores applied to the base of each plant at each inoculation timing. This was called 2× rate. The experiment was conducted in a growth cabinet at 23° C./22° C., 16 hrs light/8 hours dak.-root washing/rating of root darkening took place at 29 DAP which was 18 days after the second inoculation event or 25 days after the first inoculation event.

[1] = system: Mycosphaerella pinodes and Ascochyta pinodella; experiment: Potted plant trial, pea, stem damage from seed borne root rot / ascochyta blight; conditions: ipconazole 2.5, carboxin 66.7, metalaxyl 6.7 g ai/100 kg, combination 500 ml/100 kg

Compound | Root rot damage (Aphanomyces euteiches) | Plant height (cm) (Aphanomyces euteiches) | Seed emergence (%) (Aphanomyces euteiches) | Stem damage [1] [a 0-3 index/scale]
CC(C)C1CCC(Cc2ccc(Cl)cc2)C1(O)Cn1cncn1 (stereo not shown) [Ipconazole] | 2.2 a 0-5 index/scale | 12.3 | 85.0 | 
CC1=C(C(=O)Nc2ccccc2)SCCO1 [Carboxin] | 0.6 bc 0-5 index/scale | 12.9 | 80.0 | 1.8
COCC(=O)N(c1c(C)cccc1C)C(C)C(=O)OC (stereo not shown) [Metalaxyl] | 0.7 bc 0-5 index/scale | 12.2 | 80.0 | 
